Key:
[1] = target: T1, AuroraA-TPX2 (Homo sapiens, UniProt O14965); test: AuroraA-TPX2 Homogeneous Time Resolved Fluorescent (HTRF) kinase assay; type: biochemical; details: average; ATP about 1 μM; read-out: AurA _IC50_ IP (uM Avg)
T1 construct: 20 μL of AuroraA-TPX2 KD GST for a final volume of about 41 μL; GST
T1 sequence (O14965 133-383 limits assumed): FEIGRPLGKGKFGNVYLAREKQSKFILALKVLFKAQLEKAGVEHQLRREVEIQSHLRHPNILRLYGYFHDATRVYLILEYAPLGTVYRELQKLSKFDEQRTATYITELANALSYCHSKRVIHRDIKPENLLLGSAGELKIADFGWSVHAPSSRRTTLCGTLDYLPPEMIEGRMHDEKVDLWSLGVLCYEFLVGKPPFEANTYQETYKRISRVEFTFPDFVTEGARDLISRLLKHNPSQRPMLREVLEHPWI
T1 sequence (Q9ULW0 1-43 partner limits assumed): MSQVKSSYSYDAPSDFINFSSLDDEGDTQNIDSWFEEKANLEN
Procedure: The Aurora-A HTRF assay begins with Aurora-A in the presence of ATP phosphorylating the biotinylated peptide PLK. The reaction incubates for about 120 min. Detection reagents are added to quench the reaction. These agents stop the reaction by diluting out the enzyme and chelating the metals due to the presence of EDTA. After addition, the assay is incubated overnight to allow the detection reagents to equilibrate.
The AuroraA HTRF assay comprises 1 μL of compound in 100% DMSO, 20 μL of ATP and biotinylated PLK, and 20 μL of AuroraA-TPX2 KD GST for a final volume of about 41 μL. The final concentration of PLK is about 1 μM. The final concentration of ATP is about 1 μM (Km(app)=1 μM+/−0.1) and the final concentration of AuroraA is about 5 nM. Buffer conditions are as follows: 60 mM HEPES pH 7.5, 25 mM NaCl, 10 mM MgCl, 2 mM DTT, 0.05% BSA.
(§1) The assay is quenched and stopped with 160 μL of detection reagent. Detection reagents are as follows: Buffer made of 50 mM Tris, pH 7.5, 100 mM NaCl, 3 mM EDTA, 0.05% BSA, 0.1% Tween20. Added to this buffer prior to reading is Steptavidin allophycocyanin (SA-APC) at a final conc in the assay of 0.0005 mg/mL, and europilated anti-phosphoPLK Ab (Eu-anti-PLK) at a final conc of 0.02 nM.
(§2) The assay plate is read in either a Discovery or a RubyStar. The eu-anti-PLK is excited at 320 nm and emits at 615 nm to excite the SA-APC which in turn emits at 655 nm. The ratio of SA-APC at 655 nm (excited due to close proximity to the Eu-anti-PLK because of phosphorylation of the peptide) to free Eu-anti-PLK at 615 nm will give substrate phosphorylation.

[2] = target: T2, AuroraB (Homo sapiens, UniProt Q96GD4); test: AuroraB Homogeneous Time Resolved Fluorescent (HTRF) kinase assay; type: biochemical; details: average; ATP 23 μM; read-out: AurB_IC50_IP (uM Avg)
T2 construct: 20 μL of AuroraB FL His for a final volume of 41 μL; His
Procedure: The AuroraB HTRF assay begins with AuroraB in the presence of ATP phosphorylating the biotinylated peptide Histone H3. The reaction incubates for about 90 min. the reaction is quenched by addition of detection reagents, which stop the reaction by diluting out the enzyme and chelating the metals due to the presence of EDTA. After addition, the assay is incubated for about 60 min to allow detection reagents to equilibrate.
The AuroraB HTRF assay comprises 1 μL of compound in 100% DMSO, 20 μL of ATP and biotinylated Histone H3, and 20 μL of AuroraB FL His for a final volume of 41 μL. The final concentration of Histone H3 is 0.1 μM. The final concentration of ATP is 23 μM (Km(app)=23 μM+/−2.6) and the final concentration of AuroraB is 400 pM. Buffer conditions are as follows: 50 mM HEPES pH 7.5, 5 mM NaCl, 0.5 mM MgCl, 0.5 mM MnCl, 2 mM DTT, 0.05% BSA.
as §1, with “0.001” for “0.0005”, “anti-phosphoHistoneH3” for “anti-phosphoPLK”, “(Eu-anti-His H3)” for “(Eu-anti-PLK)”, “0.064” for “0.02”
as §2, with “The eu-anti-His H3” for “The eu-anti-PLK”, “the Eu-anti-H is H3” for “the Eu-anti-PLK”, “free Eu-anti-His H3” for “free Eu-anti-PLK”

[3] = test system: HeLa cells; test: HeLa cell 24 hr ploidy assay; type: cell-based; details: Homo sapiens, 24 hrs treatment, average, read-out: 24h_4N Ploidy EC50_IP (uM Avg)
Procedure: The purpose of this assay is to evaluate the ability of selected individual compounds to induce Deoxyribonucleic acid (DNA) content (ploidy) in cells through failed cell division. Cell cycle analysis is a rapid and efficient way to evaluate the status of DNA content (ploidy) of a given cell. HeLa cells (1×10^4 HeLa cells/well) in 100 ul of media (MEM+10% FBS) were plated in 96-well plates (Packard View) and cultured for 24 hrs at 37° C. maintained in a 5% CO2 atmosphere. The following day, cells were treated for 24 hrs with inhibitor compounds (10 pt. Dose ranging from 0.0024-1.25 umol/L). The compounds were serially diluted in DMSO (0.25% final concentration). The cells were fixed (3.7% Formaldehyde and 1% glutaraldehyde) and permeabilized (1×PBS with 1% BSA and 0.2% Triton X-100) in preparation for nuclear staining. The well plates were stained for 45 minutes at RT in the dark using Hoechest 33342 nuclear stain at 0.5 ug·ml (Stock of 10 mg/ml, Invitrogen, CA, Cat # H3570). The nuclear stain was removed by aspiration and the cells were washed with wash buffer. A Cellomics Array Scan Vti plate reader was used to acquire the DNA ploidy data of the cells using Cell Cycle bioapplication. Numbers for each of “valid cell count/well”, “% of 4N cells” and “% of >4Ncells” were calculated with the assistance of an Activity Base 5.1ca software and dose curves were generated using an XLFit software. With XLFit, final EC50 IP and EC50 transit values, as well as the Max and Min, were calculated for each curve.

T2 sequence (Q96GD4 whole entry): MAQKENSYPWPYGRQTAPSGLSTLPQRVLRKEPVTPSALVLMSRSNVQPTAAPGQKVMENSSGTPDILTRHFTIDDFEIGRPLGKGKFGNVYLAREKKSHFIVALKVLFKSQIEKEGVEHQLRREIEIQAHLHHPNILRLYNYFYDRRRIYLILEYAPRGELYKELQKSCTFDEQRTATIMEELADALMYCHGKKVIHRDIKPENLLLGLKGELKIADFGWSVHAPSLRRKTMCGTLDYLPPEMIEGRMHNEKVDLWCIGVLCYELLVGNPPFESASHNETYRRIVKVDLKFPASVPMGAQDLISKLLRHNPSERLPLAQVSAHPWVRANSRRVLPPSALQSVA

Row | Structure (SMILES) | IC50 [1] [µM] | IC50 [2] [µM] | EC50 [3] [µM]
1 | COc1cc2nccc(Oc3ccc(NC(=O)c4ccccc4Nc4ccc(F)cc4)cc3)c2cc1OC [Example 11, N-(4-(6,7-dimethoxyquinolin-4-yloxy)phenyl)-2-(4-fluorophenylamino)benzamide] | < 0.1 | < 0.1 | < 0.1
2 | COc1cc2nccc(Oc3ccc(NC(=O)c4ccccc4Nc4ccccc4)cc3)c2cc1OC [Example 12, N-(4-(6,7-dimethoxyquinolin-4-yloxy)phenyl)-2-(phenylamino)benzamide] | < 0.1 | < 0.1 | < 0.1
3 | COc1cc2nccc(Oc3ccc(NC(=O)c4ccccc4Nc4cccc(F)c4)cc3)c2cc1OC [Example 13, N-(4-(6,7-dimethoxyquinolin-4-yloxy)phenyl)-2-(3-fluorophenylamino)benzamide] | < 0.1 | < 0.1 | < 0.1
4 | COc1cnc2c(Oc3ccc(NC(=O)c4cc(F)ccc4Nc4ccccc4)cc3)ccnc2c1 [Example 14, 5-fluoro-N-(4-(7-methoxy-1,5-naphthyridin-4-yloxy)phenyl)-2-(phenylamino)benzamide] | < 0.1 | < 0.1 | < 0.1
5 | COc1cnc2c(Oc3ccc(NC(=O)c4ccccc4Nc4ccccc4)cc3)ccnc2c1 [Example 15, N-(4-(7-methoxy-1,5-naphthyridin-4-yloxy)phenyl)-2-(phenylamino)benzamide] | < 0.1 | < 0.1 | < 0.1
6 | COc1cc2nccc(Oc3ccc(NC(=O)c4ccccc4Nc4ccccc4)cc3F)c2cc1OC [Example 16, N-(4-(6,7-dimethoxyquinolin-4-yloxy)-3-fluorophenyl)-2-(phenylamino)benzamide] | < 0.1 | < 0.1 | –

Second part, the compound after the results:

Row | IC50 [1] [µM] | IC50 [2] [µM] | EC50 [3] [µM] | Structure (SMILES)
7 | < 0.1 | < 0.1 | 0.1 to 0.5 | COc1ccc2c(Oc3ccc(NC(=O)c4ccccc4Nc4ccccc4)cc3F)ccnc2c1 [Example 17, N-(3-fluoro-4-(7-methoxyquinolin-4-yloxy)phenyl)-2-(phenylamino)benzamide]
8 | 0.1 to 0.5 | 0.1 to 0.5 | 1 to 5 | Nc1nccc(Oc2ccc(NC(=O)c3ccccc3Nc3ccc(F)cc3)cc2)n1 [Example 18, N-(4-(2-aminopyrimidin-4-yloxy)phenyl)-2-(4-fluorophenylamino)benzamide]
9 | 0.5 to 1 | < 0.1 | 0.5 to 1 | COc1cnc2c(Sc3ccc(NC(=O)c4ccccc4NN4CCCCC4)cc3)ccnc2c1 [Example 19, N-(4-(7-methoxy-1,5-naphthyridin-4-ylthio)phenyl)-2-(piperidin-1-ylamino)benzamide]
10 | 0.5 to 1 | 0.1 to 0.5 | 1 to 5 | COc1cnc2c(Oc3ccc(NC(=O)c4ccccc4NN4CCCCC4)cc3)ccnc2c1 [Example 20, N-(4-(7-methoxy-1,5-naphthyridin-4-yloxy)phenyl)-2-(piperidin-1-ylamino)benzamide]
11 | 1 to 5 | 0.1 to 0.5 | 1 to 5 | CNC(=O)c1cc(Oc2ccc(NC(=O)c3ccccc3Nc3ccccc3)cc2)ccn1 [Example 21, N-methyl-4-(4-(2-(phenylamino)benzamido)phenoxy)picolinamide]
12 | 1 to 5 | < 0.1 | 0.5 to 1 | COc1cnc2c(Sc3ccc(NC(=O)c4ccccc4NN4CCC(OC)CC4)cc3)ccnc2c1 [Example 22, N-(4-(7-methoxy-1,5-naphthyridin-4-ylthio)phenyl)-2-(4-methoxypiperidin-1-ylamino)benzamide]

From US9126935B2, “Aurora kinase modulators and methods of use” (Amgen Inc., priority 2008, dated 2015)
